According to patent US20110091570A1, “Compositions and Devices for Antisepsis and Anticoagulation” (priority 2008, published 2011):
Where “and” joins values, the source holds several entries; their conditions need not be identical. Identical values can stand only once.

Tests used:
chronic rhinosinusitis = conditions: pilot study in chronic rhinosinusitis [Ref. 16]; cited from earlier work
[1] = system: Escherichia coli (ATCC 11229); assay: Bactericidal activity of NCT without and with heparin (CFU counts); type: cell-based
Experimental: FIG. 2 presents a plot of bactericidal activity of 1% NCT without and with 125 IE/mL heparin against Escherichia coli ATCC 11229 at pH 7.1 and 37° C. Mean values±standard error of the mean of three independent experiments. P>0.05 between NCT without and NCT with heparin.
NCT was dissolved in 0.1 M phosphate buffer containing either 125 IE/mL heparin or no heparin. The final NCT concentration was 1%. Various bacterial species were grown in tryptic soy broth overnight, were washed twice in saline and then suspended in the NCT and NCT/heparin solutions. The species were Staphylococcus aureus (ATCC 25923), Escherichia coli (ATCC 11229), Streptococcus pyogenes, Staphylococcus epidermidis, Pseudomonas aeruginosa, Proteus mirabilis, and methicillin-resistant Staphylococcus aureus. Controls were performed with the foregoing bacterial species suspended in 0.1 M phosphate buffer without additives and in 0.1 M phosphate buffer containing 125 IE/mL heparin. All of the solutions were incubated at 37° C. and pH 7.1. After 1, 3, 5, 8, and 10 minutes, aliquots of 100 μL were removed and diluted 10-fold or 100-fold in 0.6% sodium thiosulfate solution to inactivate the NCT. Aliquots (50 μL) of these dilutions were spread on tryptic soy agar plates. The plates were incubated at 37° C. and colony forming units of bacteria were counted after 24 and 48 hours. […]

Fibrinogen = target: T1, Fibrinogen (Homo sapiens, UniProt P02671+P02675+P02679); assay: Fibrinogen, Multifibren U test; type: biochemical; conditions: for Fibrinogen, mean value: mean of 11 subjects
T1 construct: from tissue; host or cells: citrated whole blood of volunteers
T1 sequence (P02671 20-629 limits assumed): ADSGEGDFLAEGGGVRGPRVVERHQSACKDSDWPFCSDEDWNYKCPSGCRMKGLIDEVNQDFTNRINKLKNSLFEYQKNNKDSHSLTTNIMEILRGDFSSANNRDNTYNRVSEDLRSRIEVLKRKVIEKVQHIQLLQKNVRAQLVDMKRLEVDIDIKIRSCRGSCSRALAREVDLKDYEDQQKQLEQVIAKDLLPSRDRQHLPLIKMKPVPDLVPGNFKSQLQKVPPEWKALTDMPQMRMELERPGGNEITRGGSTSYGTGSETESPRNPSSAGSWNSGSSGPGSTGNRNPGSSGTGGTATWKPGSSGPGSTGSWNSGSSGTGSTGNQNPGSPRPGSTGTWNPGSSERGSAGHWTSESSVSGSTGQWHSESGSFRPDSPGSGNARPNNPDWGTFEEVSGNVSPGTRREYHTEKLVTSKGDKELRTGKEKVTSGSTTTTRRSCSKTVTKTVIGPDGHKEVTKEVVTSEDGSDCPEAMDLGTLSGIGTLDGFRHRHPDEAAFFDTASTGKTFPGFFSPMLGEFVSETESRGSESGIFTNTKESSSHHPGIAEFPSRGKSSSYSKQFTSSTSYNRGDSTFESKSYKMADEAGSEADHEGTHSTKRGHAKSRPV
T1 sequence (P02675 31-491): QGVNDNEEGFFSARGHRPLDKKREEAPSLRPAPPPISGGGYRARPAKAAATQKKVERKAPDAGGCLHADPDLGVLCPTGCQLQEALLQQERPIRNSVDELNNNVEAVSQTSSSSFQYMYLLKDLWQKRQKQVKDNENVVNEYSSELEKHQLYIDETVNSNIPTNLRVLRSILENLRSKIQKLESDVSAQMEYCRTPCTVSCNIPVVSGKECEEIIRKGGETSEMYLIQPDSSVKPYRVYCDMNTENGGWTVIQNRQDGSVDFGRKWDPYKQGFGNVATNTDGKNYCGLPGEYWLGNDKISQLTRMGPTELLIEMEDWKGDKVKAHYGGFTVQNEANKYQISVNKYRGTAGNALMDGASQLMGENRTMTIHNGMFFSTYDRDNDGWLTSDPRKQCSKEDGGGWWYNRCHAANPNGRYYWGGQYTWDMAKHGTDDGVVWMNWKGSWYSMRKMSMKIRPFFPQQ
T1 sequence (P02679 27-453): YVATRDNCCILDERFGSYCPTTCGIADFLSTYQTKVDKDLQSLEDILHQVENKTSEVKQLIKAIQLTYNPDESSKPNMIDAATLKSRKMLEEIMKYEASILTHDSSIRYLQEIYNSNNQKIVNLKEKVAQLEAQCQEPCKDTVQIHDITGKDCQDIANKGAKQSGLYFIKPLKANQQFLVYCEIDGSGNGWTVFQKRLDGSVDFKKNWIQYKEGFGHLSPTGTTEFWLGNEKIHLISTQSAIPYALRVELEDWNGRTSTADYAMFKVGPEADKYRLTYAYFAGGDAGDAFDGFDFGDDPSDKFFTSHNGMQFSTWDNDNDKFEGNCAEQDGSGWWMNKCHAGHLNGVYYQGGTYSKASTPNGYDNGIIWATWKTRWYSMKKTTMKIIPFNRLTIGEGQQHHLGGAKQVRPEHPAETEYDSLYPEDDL
Experimental: Whole blood was taken from a single volunteer and enriched with trisodium citrate (0.3 mL of a 0.106 molar solution per 3 mL whole blood) (S-Monovette®, Sarstedt, Nümbrecht, Germany). Portions of 1.8 mL citrate blood were mixed with 0.2 mL NCT in 0.9% saline. The following final (after dilution in blood) NCT concentrations were tested separately: 1% (55 mM); 0.5% (27.5 mM); 0.25% (13.75 mM); 0.1% (5.5 mM); 0.05% (2.75 mM); 0.025% (1.375 mM); and 0.01% (0.55 mM). A control without NCT was performed in parallel. The following commercial coagulation tests were performed according to the prescription of the manufacturer: prothrombin time (PT) was determined using Thromborel® S test (Dade Behring GmbH, Marburg, Germany), activated partial thromboplastin time (aPTT) was determined using Pathromtin* SL test (Dade Behring GmbH, Marburg, Germany); thrombin time (TT) was determined using BC Thrombin Reagent test (Dade Behring GmbH, Marburg, Germany); and fibrinogen was determined using Multifibren* U test (Dade Behring GmbH, Marburg, Germany).
Whole blood was taken from 11 volunteers and enriched with trisodium citrate (0.3 mL of a 0.106 molar solution per 3 mL whole blood) (S-Monovette®, Sarstedt, Nümbrecht, Germany). Commercial coagulation tests (as described in Example 6) were performed with the following samples: […]

In the case of `O=S(=O)(O)CCNCl` [NCT, N-chlorotaurine], the tolerability (chronic rhinosinusitis) is listed as “good tolerability”, the “influence of heparin on the killing of bacteria” value ([1]; 0.1% NCT, virtually identical experiments) is listed as “no statistically significant influence of heparin on the killing of bacteria” and the “killing activity of NCT with vs without heparin” value ([1]; 1% NCT, 125 IE/mL heparin, pH 7.1, 37° C., 1-10 min) is listed as “no difference in the killing activity”. For the same molecule, the Fibrinogen (Fibrinogen; Example 6, single volunteer, 0.01% (0.55 mM) NCT final) was 281.4, the Fibrinogen (Fibrinogen; Example 6, single volunteer, 0.025% (1.375 mM) NCT final) was 199.4 and the Fibrinogen (Fibrinogen; Example 6, single volunteer, 0.05% (2.75 mM) NCT final) was “not detectable”. The Fibrinogen (Fibrinogen; Example 6, single volunteer, 0.1% (5.5 mM) NCT final) was “not detectable”, the Fibrinogen (Fibrinogen; Example 6, single volunteer, 0.25% (13.75 mM) NCT final) was “not detectable” and the Fibrinogen (Fibrinogen; Example 6, single volunteer, 0.5% (27.5 mM) NCT final) was “not detectable”. For the same molecule, the Fibrinogen (Fibrinogen; Example 6, single volunteer, 1% (55 mM) NCT final) was “not detectable”, the Fibrinogen (Fibrinogen; Example 7, 0.01% NCT, individual subjects 1-11) was 170 mg/dL and 112 mg/dL and 240 mg/dL and 87 mg/dL and 194 mg/dL and 178 mg/dL and 226 mg/dL and 237 mg/dL and 224 mg/dL and 230 mg/dL and 215 mg/dL and the “Fibrinogen, mean value” (Fibrinogen; Example 7, 0.01% NCT) was 192.1 mg/dL. For the same molecule, the Fibrinogen (Fibrinogen; Example 7, 0.025% NCT, individual subjects 1-11) was 40 mg/dL and the “Fibrinogen, mean value” (Fibrinogen; Example 7, 0.025% NCT) was 40.0 mg/dL.
